Assay results reported in patent US20160095343A1, “Synbiotic Product” (Tate & Lyle Ingredients Americas LLC, priority 2010, published 2016).

How the values were obtained:
Assay type in all cases: cell-based
B. coagulans = assay: Growth of probiotic Bacillus on prebiotic carbohydrates (Example 1); settings: carbohydrate at 10 g/L
Protocol: (§1) Four commercial spore-forming probiotic Bacillus strains were grown on prebiotic carbohydrates at 10 g/L. (See FIG. 1). The four strains were B. pumilus, B. licheniformis, B. subtilis, and B. coagulans. The prebiotic carbohydrates were high molecular weight arabinoxylan (AX), xylose (X), soluble fiber dextrin (waxy) (SFDw), soluble corn fiber (85) (SCF), and polydextrose (PDX). As a measure of the significance of the data shown in FIG. 1, Table 1 indicates P values for the B. coagulans data.

B. licheniformis = assay: as above; settings: carbohydrate at 10 g/L
Protocol: as §1

B. pumilus = assay: as above; settings: carbohydrate at 10 g/L
Protocol: as §1

B. subtilis = assay: as above; settings: carbohydrate at 10 g/L
Protocol: as §1

[1] = tested on: B. coagulans strain GBI-30; assay: Comparison of maximum growth of B. coagulans on various carbohydrates (Example 2); settings: carbohydrate at ~10 g/L, against no added carbohydrates
From the text: The maximum growth of probiotic B. coagulans strain GBI-30 (ATCC Designation Number PTA-6086; U.S. Pat. No. 6,849,256) (Ganeden Biotech, Inc.; Mayfield Heights, Ohio) was compared on the carbohydrates arabinoxylan, xylose, and dextrose at ˜10 g/L and against addition of no carbohydrates (FIG. 2).

## O=C[C@H](O)[C@@H](O)[C@H](O)CO [xylose]
B. coagulans
  growth of B. coagulans on the prebiotic carbohydrate: grew
B. licheniformis
  growth of B. licheniformis on the prebiotic carbohydrate: limited growth
B. pumilus
  growth of B. pumilus on the prebiotic carbohydrate: did not appear able to grow
B. subtilis
  growth of B. subtilis on the prebiotic carbohydrate: grew
[1]
  maximum growth of B. coagulans strain GBI-30 on the carbohydrate: strong growth
